Broadly, the IC50 is the concentration needed to halve the response being measured. By Kd is commonly meant the equilibrium constant for the complex coming apart. The low end stands for tighter binding, the high end for weaker binding.

Data on six molecules can be found in patent US20250090699A1, “FAP TARGETING CYCLIC PEPTIDES AND CONJUGATES THEREOF” (Novartis AG, priority 2023, published 2025).

For one experiment, the target named is T1, human FAP (Homo sapiens, UniProt Q12884).
T1 construct: the biotinylated His, Avi tag, human FAP (26-760, FAP-H82Q6); His; Avi tag (biotinylated); purchased AcroBiosystems FAP-H82Q6
T1 sequence (Q12884 26-760): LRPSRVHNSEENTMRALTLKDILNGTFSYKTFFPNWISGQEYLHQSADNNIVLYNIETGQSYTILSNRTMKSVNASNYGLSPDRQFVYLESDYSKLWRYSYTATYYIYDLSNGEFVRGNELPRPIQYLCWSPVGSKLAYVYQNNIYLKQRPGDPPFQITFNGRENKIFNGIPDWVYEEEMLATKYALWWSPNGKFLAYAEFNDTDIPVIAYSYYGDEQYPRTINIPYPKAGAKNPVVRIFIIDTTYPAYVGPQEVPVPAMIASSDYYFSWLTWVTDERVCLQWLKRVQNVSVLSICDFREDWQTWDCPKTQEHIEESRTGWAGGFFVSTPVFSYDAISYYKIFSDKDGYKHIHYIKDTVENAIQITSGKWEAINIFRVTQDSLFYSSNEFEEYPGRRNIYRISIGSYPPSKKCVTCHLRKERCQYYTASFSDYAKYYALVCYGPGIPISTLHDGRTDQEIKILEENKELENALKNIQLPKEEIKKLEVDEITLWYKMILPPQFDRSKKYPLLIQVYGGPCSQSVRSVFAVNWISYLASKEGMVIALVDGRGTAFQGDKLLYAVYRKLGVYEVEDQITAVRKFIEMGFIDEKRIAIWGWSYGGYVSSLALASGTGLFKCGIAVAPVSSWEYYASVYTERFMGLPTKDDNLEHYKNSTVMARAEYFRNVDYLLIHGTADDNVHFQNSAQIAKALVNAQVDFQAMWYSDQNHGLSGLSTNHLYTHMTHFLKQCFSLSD
As to the kind of experiment: Enzymatic FAP competition assay (Z-Gly-Pro-AMC fluorescence), human FAP. It counts as biochemical. The settings on record: read-out: h. FAP, Enz., IC50. The procedure, abridged:
(§1)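 IC50 values come from curve fitting of duplicate % inhibition data on AMC fluorescence (ex 380, em 460 nm) after 4 h at 22-24° C with 50 μM Z-Gly-Pro-AMC. Beforehand, peptides up to 1 μM (14 levels) sat 24 h with 0.01 nM human (26-760) or mouse (26-761) tagged FAP in phosphate buffer pH 7.5, NaCl, Tween20, 1% DMSO.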

Experiment [1] addresses T2, mouse FAP (Mus musculus, UniProt P97321).
T2 construct: biotinylated His, Avi tag, mouse FAP (26-761, FAP-M82Q5); His; Avi tag (biotinylated); purchased AcroBiosystems FAP-M82Q5
T2 sequence (P97321 26-761): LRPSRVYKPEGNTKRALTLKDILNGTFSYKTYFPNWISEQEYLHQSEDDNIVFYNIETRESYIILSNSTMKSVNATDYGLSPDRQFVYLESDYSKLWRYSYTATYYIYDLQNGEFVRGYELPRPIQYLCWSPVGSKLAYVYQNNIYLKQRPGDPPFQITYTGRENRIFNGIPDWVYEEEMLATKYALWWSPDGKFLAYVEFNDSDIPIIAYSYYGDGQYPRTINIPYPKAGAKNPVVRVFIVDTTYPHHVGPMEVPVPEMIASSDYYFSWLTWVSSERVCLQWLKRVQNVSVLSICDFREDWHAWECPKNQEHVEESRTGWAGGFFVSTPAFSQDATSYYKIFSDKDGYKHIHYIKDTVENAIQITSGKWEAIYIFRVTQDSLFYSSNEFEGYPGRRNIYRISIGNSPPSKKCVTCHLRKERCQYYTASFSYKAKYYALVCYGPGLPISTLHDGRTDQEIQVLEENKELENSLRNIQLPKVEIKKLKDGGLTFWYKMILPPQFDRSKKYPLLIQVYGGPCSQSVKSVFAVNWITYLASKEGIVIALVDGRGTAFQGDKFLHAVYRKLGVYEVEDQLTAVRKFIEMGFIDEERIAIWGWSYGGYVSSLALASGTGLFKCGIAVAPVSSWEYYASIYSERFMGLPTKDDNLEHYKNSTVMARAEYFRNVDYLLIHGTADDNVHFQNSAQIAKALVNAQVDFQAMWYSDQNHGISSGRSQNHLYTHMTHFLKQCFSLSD
Nature of the experiment: Enzymatic FAP competition assay (Z-Gly-Pro-AMC fluorescence), mouse FAP. It counts as biochemical. The settings on record: read-out: m. FAP, Enz., IC50. The procedure, abridged: as §1

Experiment [2] addresses T2, mouse FAP. Nature of the experiment: Surface plasmon resonance (SPR) for peptide affinity, mouse FAP. The experiment is classed as binding. In short, it runs like this: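 KD values come from a 1:1 kinetic fit of single-cycle SPR data: 8 peptide concentrations, 25 °C, 30 μL/min, HEPES-buffered saline pH 7.6 with 2% DMSO. Targets were His/Avi-tagged human (26-760) or mouse (26-761) FAP, amine-coupled to CM5 or held on a CAPture chip.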
For orientation: SPR reads the build-up and loss of mass on a sensor chip optically.

Starred links: 1 amine or outer side, 2 acyl side, 3 side chain; linkers in the order of their positions; H or OH if unused. Non-standard residues stand in square brackets, D forms with d. Residues, ends and D or L forms follow the SMILES beside them. Groups on a side chain read outwards from the residue. *: point of attachment. F(4amPEG2NHDOTA-Lu) = lutetium complex of (S)-2,2',2''-(10-(1-(4-(2-amino-2-carboxyethyl)phenyl)-3,12-dioxo-5,8-dioxa-2,11-diazatridecan-13-yl)-1,4,7,10-tetraazacyclododecane-1,4,7-triyl)triacetic acid (Phe with 4-aminomethyl-PEG2-DOTA-Lu), O=C([O-])CN1CCN(CC(=O)[O-])CCN(CC(=O)NCCOCCOCC(=O)NCc2ccc(C[C@H](N[*:1])C(=O)[*:2])cc2)CCN(CC(=O)[O-])CC1.[Lu+3]; F(4amPEG2NHDOTA-Ga) = gallium complex of (S)-2,2',2''-(10-(1-(4-(2-amino-2-carboxyethyl)phenyl)-3,12-dioxo-5,8-dioxa-2,11-diazatridecan-13-yl)-1,4,7,10-tetraazacyclododecane-1,4,7-triyl)triacetic acid (Phe with 4-aminomethyl-PEG2-DOTA-Ga), O=C([O-])CN1CCN(CC(=O)[O-])CCN(CC(=O)NCCOCCOCC(=O)NCc2ccc(C[C@H](N[*:1])C(=O)[*:2])cc2)CCN(CC(=O)[O-])CC1.[Ga+3]; K(COpipzaa) = N6-(4-(carboxymethyl)piperazine-1-carbonyl)-L-lysine, O=C(NCCCC[C@H](N[*:1])C(=O)[*:2])N1CCN(CC(=O)[*:3])CC1; hS(Pr) = O-propyl-L-homoserine, CCCOCC[C@H](N[*:1])C(=O)[*:2]; NODAGA = O=C(O)CN1CCN(CC(=O)O)CCN(C(CCC(=O)*)C(=O)O)CC1; Phe(4-CH2NH2) = NCc1ccc(C[C@H](N)C(=O)O)cc1; Piperazinyl(4-CH2COOH) = O=C(O)CN1CCN(*)CC1; NMeF = CN[C@@H](Cc1ccccc1)C(=O)O; Ahp(2) = CCCCC[C@H](N)C(=O)O; hSer = N[C@@H](CCO)C(=O)O; Dab = NCC[C@H](N)C(=O)O; AEEA = NCCOCCOCC(=O)O; CO = O=C([*:1])[*:2]; Propyl = CCC*

As for “Glu-Gly-NMePhe-F(4amPEG2NHDOTA-Lu)-hS(Pr)-Trp-Gly-K(COpipzaa)-Asp-D-Pro (cyclo(EG[NMeF][F(4amPEG2NHDOTA-Lu)][hS(Pr)]WG[K(COpipzaa)]D[dP]); also: Lu complex of DOTA) [Example C5]”, the IC50 in the experiment with human FAP is 0.019 nM; with mouse FAP [1] it was 0.049 nM. The same molecule had a Kd in the experiment with mouse FAP [2] of under 0.084 nM.

In the case of `CCCCC[C@@H]1NC(=O)[C@H](Cc2ccc(O)cc2)NC(=O)[C@H](Cc2ccccc2)N(C)C(=O)CNC(=O)CNC(=O)[C@H]2CCCN2C(=O)[C@H](CC(=O)O)NC(=O)[C@H](CCNC(=O)N2CCN(CC(=O)O)CC2)NC(=O)CNC(=O)[C@H](Cc2c[nH]c3ccccc23)NC1=O` [Example A5, Gly-Gly-NMePhe-Tyr-Ahp-Trp-Gly-Dab(COPipzaa)-Asp-D-Pro] (cyclo([Ahp(2)]WG[Dab]([CO-Piperazinyl(4-CH2COOH)])D[dP]GG[NMeF]Y)), the results for the IC50 at human FAP and at mouse FAP [1] were 0.07 nM and 0.5 nM, respectively. Also, the Kd on mouse FAP [2] came out at 0.62 nM.

For the molecule “Glu-Gly-NMePhe-F(4amPEG2NHDOTA-Ga)-hS(Pr)-Trp-Gly-K(COpipzaa)-Asp-D-Pro (cyclo(EG[NMeF][F(4amPEG2NHDOTA-Ga)][hS(Pr)]WG[K(COpipzaa)]D[dP]); also: Ga complex of DOTA) [Example C45]”, the figures for the IC50 with human FAP and with mouse FAP [1] were 0.019 nM and 0.06 nM, respectively. The molecule further gave a Kd with mouse FAP [2] of under 0.023 nM.

For `CCCCCC[C@@H]1NC(=O)[C@H](Cc2ccc(CNC(=O)COCCOCCNC(=O)CCC(C(=O)O)N3CCN(CC(=O)O)CCN(CC(=O)O)CC3)cc2)NC(=O)[C@H](Cc2ccccc2)N(C)C(=O)CNC(=O)CNC(=O)[C@H]2CCCN2C(=O)[C@H](CC(=O)O)NC(=O)[C@H](CCCCNC(=O)N2CCN(CC(=O)O)CC2)NC(=O)CNC(=O)[C@H](Cc2c[nH]c3ccccc23)NC1=O` (stereo partly drawn) [Example B38, Gly-Gly-NMePhe-F(4amPEG2NHNODAGA)-Aoc-Trp-Gly-K(COpipzaa)-Asp-D-Pro], the results for the IC50 on human FAP and on mouse FAP [1] were 0.031 nM and 0.073 nM, respectively. Moreover, the Kd at mouse FAP [2] was under 0.076 nM.

Take `CCCOCC[C@@H]1NC(=O)[C@H](Cc2ccc(CNC(=O)COCCOCCNC(=O)CCC(C(=O)O)N3CCN(CC(=O)O)CCN(CC(=O)O)CC3)cc2)NC(=O)[C@H](Cc2ccccc2)N(C)C(=O)CNC(=O)CNC(=O)[C@H]2CCCN2C(=O)[C@H](CC(=O)O)NC(=O)[C@H](CCCCNC(=O)N2CCN(CC(=O)O)CC2)NC(=O)CNC(=O)[C@H](Cc2c[nH]c3ccccc23)NC1=O` (stereo partly drawn) [Example B33, Gly-Gly-NMePhe-F(4amPEG2NHNODAGA)-hS(pr)-Trp-Gly-K(COpipzaa)-Asp-D-Pro] (cyclo(D[dP]GG[NMeF][Phe(4-CH2NH2)]([AEEA-NODAGA])[hSer](Propyl)WGK([CO-Piperazinyl(4-CH2COOH)]))): the IC50 at human FAP amounted to 0.015 nM; on mouse FAP [1] it was 0.039 nM. In addition, the Kd on mouse FAP [2] is under 0.034 nM.

Turning to `CCCCC[C@@H]1NC(=O)[C@H](Cc2ccc(O)cc2)NC(=O)[C@H](Cc2ccccc2)NC(=O)[C@H](CCC(=O)O)NC(=O)[C@H](CCCCN)NC(=O)[C@H]2CCCN2C(=O)[C@H](CC(=O)O)NC(=O)[C@H](Cc2ccc(O)cc2)NC(=O)CNC(=O)[C@H](Cc2c[nH]c3ccccc23)NC1=O` [Example A20, Lys-Glu-Phe-Tyr-Ahp-Trp-Gly-Tyr-Asp-D-Pro] (cyclo([Ahp(2)]WGYD[dP]KEFY)), the IC50 on human FAP is 2.6 nM; at mouse FAP [1], 8.7 nM. On mouse FAP [2], the dissociation constant Kd came to 8.7 nM.
